Assay results taken from US20050026236A1, “PDE 10 cell-based assay and sequences” (Pfizer Inc, priority 2001, published 2005).

How the values were obtained:
[1] = test system: primary striatal medium spiny neurons; assay: cGMP accumulation in SNP-stimulated striatal cultures; type: cell-based, rat; conditions: for EC200 (concentration giving a 2-fold increase in cGMP): concentration yielding a 2-fold increase in cGMP, SNP 100 μM for 2 min after 20 min inhibitor incubation
Method: (§1) Striatal cultures were prepared as previously described (Ventimiglia et al., Eur. J. Neurosci. 7: 213-222, 1995). Briefly, striata (caudate nucleus and putamen) were dissected from E17 rats, dissociated to produce a single cell suspension, and plated at a density of 5×10^4 neurons/well in 96-well plates coated with poly-L-ornithine/laminin (Cat. No. 354657, BD Biosciences, Bedford, Mass.). The cells were plated in Neurobasal medium (Cat. No. 21103-049, Gibco BRL, Grand Island, N.Y.) with B27 supplements (Cat. No. 17504-010, Gibco BRL) and human recombinant brain-derived neurotrophic factor (BDNF) (100 ng/ml) (Cat. No. 248-BD, R & D Systems, Minneapolis, Minn.). Striatal medium spiny neurons comprised 50-60% of cells in these cultures, as confirmed by a GABA immunoreactivity protocol as previously described (Ventimiglia et al., 1995, supra). Expression of PDE10A mRNA in these cultures was confirmed by RNase protection assay, as further described below.
(§2) After approximately four days in vitro, the striatal cells were washed with Ca^2+/Mg^2+ free phosphate buffered saline (pH 7.4) and preincubated for an hour in a buffer containing Ca^2+/Mg^2+ free phosphate buffered saline, 30 mM HEPES (pH 7.4), 1 mM CaCl2, 1 mg/ml dextrose, and 5 mM MgCl2. The striatal cells were then exposed to one of the PDE inhibitors and incubated for 20 min. at 37° C. When measuring cGMP, the neurons were stimulated with sodium nitroprusside (SNP) (100 μM) for two min. after the 20 min. incubation with the PDE inhibitor.
(§3) The cells were lysed using a 9:1 combination of SPA direct screening Assay Buffer (0.05 M acetate with 0.01% sodium azide) and Buffer A (133 mg/ml dodecyltrimethylammonium bromide), and the lysates were frozen on dry ice.

[2] = test system: primary striatal medium spiny neurons; assay: cAMP accumulation in forskolin-stimulated striatal cultures; type: cell-based, rat; conditions: ratio of EC200 values in striatal cultures
Method: as §1, §2, §3

PDE10A [3] = assay: Papaverine inhibition of PDE10A, SPA-based PDE assay; type: biochemical
Method: Phosphodiesterases 7-11 were generated from full length recombinant clones transfected into SF9 cells as previously described (Fisher et al., Biochem. Biophys. Res. Comm. 246: 570-577, 1998; Fisher et al., J. Biol. Chem. 273: 15559-15564, 1998b; Soderling et al., PNAS 96: 7071-7076, 1999; Fawcett et al., PNAS 97: 3702-3707, 2000). The enzymes were purified by FPLC from the soluble fraction of cell lysates as described in Boolell et al., supra.
PDE activity was measured using a SPA-based method as previously described (Fawcett et al., 2000). Assays were conducted using a fixed amount of PDE10A enzyme in the presence of varying inhibitor concentrations. […] The final assay volume was adjusted to 100 μl with assay buffer (20 mM Tris-HCl pH 7.4, 5 mM MgCl2, 1 mg/ml bovine serum albumin).
Reactions were initiated with the addition of enzyme. Samples were incubated for 30-60 min. at 30° C. to give <30% substrate turnover and terminated with 50 μl yttrium silicate SPA beads (Amersham) containing 3 mM of the appropriate unlabelled cyclic nucleotide. Plates were re-sealed and shaken for 20 min.; the beads were then allowed to settle for 30 min. in the dark and then counted on a TopCount plate reader (Packard, Meriden, Conn.). Radioactivity units were converted to percent activity as compared to an uninhibited control (100%). […]

PDE7 = conditions: substrate at 1/3 Km
PDE1 = conditions: substrate at 1/3 Km
[4] = test system: primary striatal medium spiny neurons; assay: cGMP accumulation in cultured primary striatal medium spiny neurons; type: cell-based, rat; conditions: 100 μM; SNP-stimulated
PDE10A [5] = conditions: cited from earlier work
[6] = test system: primary striatal medium spiny neurons; assay: cAMP accumulation in cultured primary striatal medium spiny neurons; conditions: Rattus norvegicus, Neuron

CC(C)Cn1c(=O)n(C)c(=O)c2[nH]cnc21 [IBMX, 3-isobutyl-1-methylxanthine]
EC200 (concentration giving a 2-fold increase in cGMP) ([1]; Rattus norvegicus, Neuron): 19 µM | EC200 (concentration giving a 2-fold increase in cGMP) [1]: 19.5 µM | cAMP EC200/cGMP EC200 [2]: 1.5

COc1ccc(Cc2nccc3cc(OC)c(OC)cc23)cc1OC [Papaverine]
cGMP levels elevated over cultures stimulated with SNP alone (maximal effect) ([1]; 100 μM papaverine, SNP 100 μM): 5 fold | effect on cGMP levels in unstimulated cells ([1]; cells unstimulated by SNP or forskolin): did not affect | mode of inhibition (PDE10A [3]): competitive inhibitor | IC50 (PDE7): 27 µM | IC50 (PDE1): 37 µM

COc1ccc(C2CNC(=O)C2)cc1OC1CCCC1 (stereo not shown) [Rolipram, rolipram]
EC200 (concentration giving a 2-fold increase in cGMP) ([1]; Rattus norvegicus, Neuron): 29.2 ± 10.3 µM | concentration needed to double the rate of cGMP accumulation relative to cAMP EC200 ([1]; higher than cAMP EC200 of 2.5 μM): 10 fold | cAMP EC200/cGMP EC200 [2]: 0.09

CCCOc1ccccc1-c1nc2nn[nH]c2c(=O)[nH]1 [Zaprinast, zaprinast]
EC200 (concentration giving a 2-fold increase in cGMP) ([1]; Rattus norvegicus, Neuron): > 100 µM | EC200 (concentration giving a 2-fold increase in cGMP) [1]: 98.3 ± 10.3 µM | cAMP EC200/cGMP EC200 [2]: 1

CCCOc1ccccc1-c1nc2nn[nH]c2c(=O)[nH]1 [Zaprinast]
effect on level of cGMP [4]: did not quite double the level of cGMP

Nc1nc2c(ncn2[C@@H]2O[C@@H]3COP(=O)(O)O[C@H]3[C@H]2O)c(=O)[nH]1 [cGMP, cyclic guanine 3′5′-monophosphate]
greater Vmax for cGMP over cAMP (PDE10A [5]; Fujishige et al., 1999): approximately 5 fold | Km (PDE10A [5]; read-out: Km for cGMP): 3 µM

C=C[C@@]1(C)CC(=O)[C@]2(O)[C@@]3(C)[C@@H](O)CCC(C)(C)[C@@H]3[C@H](O)[C@H](OC(C)=O)[C@@]2(C)O1 [forskolin]
fold induction at 1 µM ([6]; read-out: increase over basal cAMP): 2 to 3 | activation at 1 µM ([6]; read-out: per cent of the maximal cAMP response): 20 to 25%
